According to patent US9157105B2, “Biosynthesis of CMP-legionaminic acid from fructose-6-P, and respective pathway intermediates, using novel GDP-linked precursors” (priority 2008, dated 2015):

Tests used:
Type in all cases: biochemical, Campylobacter jejuni 11168
[1] = tested on: LegB (Cj1319, 4,6-dehydratase); assay: LegB C4,6 dehydratase reaction with NDP-sugars; details: in the presence or absence of NAD(P)+
Method: (§1) Enzymatic reactions were performed for 4.5 h at 37° C., and then overnight at 25° C., with approximately 200 μg ml^−1 respective protein concentration using chemicals from Sigma (unless otherwise indicated). GDP-glucosamine biosynthesis. The ‘one-pot’ enzymatic synthesis of GDP-GlcN from Fru-6-P (I→IV) was accomplished using a 3 ml reaction containing His6PtmF, PtmAHis6, PgmLHis6, His6PtmE, 5 mM Fru-6-P (I), 10 mM L-Gln, 1 mM DTT, 5 mM MgCl2, 0.8 U ml^−1 pyrophosphatase, and 2.5 mM GTP in 25 mM Tris pH 7.5. Large-scale enzymatic synthesis of GDP-GlcN (IV) was accomplished using a 12 ml reaction containing 50 mM Tris pH 7.5, 1 mM GTP, 1 mM MgCl2, 0.8 U ml^−1 pyrophosphatase, 1.2 mM GlcN-1-P (III) and approximately 4.8 mg of His6PtmE. The large-scale enzymatic synthesis of GDP-GlcNAc was performed similar to that above, except the scale was increased five-fold and GlcNAc-1-P was used in place of GlcN-1-P (III). Assessment of His6PtmE substrate specificity was accomplished using 9 reactions, 80 μl each, containing 50 mM Tris pH 7.5, 2 mM MgCl2, 50 μg His6PtmE, and various combinations of 10 mM sugar-1-P (GalN-1-P, GlcN-1-P or GlcNAc-1-P) and 0.2 mM NTP (CTP, GTP, or TTP). Conversion of GDP-GlcN to GDP-GlcNAc. The His6GlmU reaction was performed using 1 mM GDP-GlcN (IV), 1.2 mM acetyl-CoA and His6GlmU in 25 mM sodium phosphate pH 7.8, 25 mM NaCl, 10 mM β-mercaptoethanol. In addition, a control reaction was performed containing 1 mM GlcN-1-P (III) instead of IV. Biosynthesis of legionaminic acid from GDP-GlcNAc. The stepwise enzymatic synthesis of intermediates or products was accomplished in 2 stages (V→VI→VII→VIII, and then VIII→IX→X) using 1 mM of V, 0.5 mM NAD, 0.8 mM PLP, 8 mM L-Glu, 1.2 mM acetyl-CoA, 1.2 mM PEP, LegBHis6, His6LegC, His6LegH, His6LegG, and His6LegI as appropriate, in 25 mM sodium phosphate pH 7.3, 25 mM NaCl. Assessment of His6LegG activity involved monitoring the reaction kinetics by ^1H NMR (see NMR spectroscopy) for 75 min using 0.75 mM GDP-2,4-diacetamido-2,4,6-trideoxy-α-D-Glc (VIII), 4 μg His6LegG in 200 μl of 25 mM sodium phosphate pH 7.3, 25 mM NaCl at 25° C. In addition, the substrate flexibility of His6LegG was assessed using a 300 μl reaction containing 40 μg His6LegG, 25 mM sodium phosphate pH 7.3, 25 mM NaCl, and 0.75 mM UDP-2,4-diacetamido-2,4,6-trideoxy-α-D-Glc, with incubation at 37° C. for 1.5 h, and then overnight at 25° C. Biosynthesis of CMP-legionaminic acid. The CMP-activation of legionaminic acid (X→XI) was performed using a 20 ml reaction containing approximately 0.2 mM of X, 50 mM MgCl2, 3 mM CTP, and 15 mg of LegFHis6 in 25 mM sodium phosphate pH 7.8, 25 mM NaCl, with incubation at 37° C. for 5 h, and then 25° C. for 72 h. Metabolite purification. Typically, reactions were passed through an Amicon Ultra-15 (10,000 molecular weight cut-off) or Ultra-4 (5,000 molecular weight cut-off) filter membrane before analysis. As required, NDP-sugar preparations (GDP-Glc, GDP-GlcN, GDP-GlcNAc, CDP-GlcNAc, TDP-GlcNAc, and CMP-Leg) were lyophilized and desalted/purified using a Superdex Peptide 10/300 GL (Amersham Biosciences) column in 25 mM ammonium bicarbonate, pH 7.9. For further purity, the NDP-sugar samples above were subjected to anion-exchange chromatography (Mono Q 4.6/100 PE, Amersham Biosciences) using ammonium bicarbonate pH 7.9. Quantification of NDP-sugar preparations was determined using the molar extinction coefficients of CMP (ε260=7,400), GDP (ε260=11,500), TDP (ε260=8,700), and UDP (ε260=10,000).
(§2) CE analysis was performed using either a P/ACE 5510 or P/ACE MDQ system (Beckman Instruments, Mississauga, Ont) with diode array detection. The capillaries were bare silica 50 μm×50 cm, with a detector at 50 cm, and the running buffer was 25 mM sodium tetraborate pH 9.4. Samples were introduced by pressure injection for 6 sec, and the separation was performed at 18 kV for 20 min. Peak integration was done using the Beckman P/ACE station software.

[2] = tested on: His6PtmE (Cj1329, nucleotidyltransferase); assay: His6PtmE substrate specificity (sugar-1-P acceptors and NTP donors); details: for PtmE activity with sugar-1-P acceptor: 10 mM sugar-1-P, 0.2 mM NTP, 30 min at 37° C.; for PtmE NTP donor specificity with this sugar acceptor: NTP = CTP, GTP or TTP
Method: as §1, with “Enzymatic reactions were performed for 4.5 h at 37° C., and then overnight at 25° C., with approximately 200 μg ml^−1 respective protein concentration using chemicals from Sigma (unless otherwise indicated).” left out
as §2

[3] = target: T1, His6LegG (Cj1328, NDP-sugar hydrolase/2-epimerase) (Campylobacter jejuni subsp. jejuni serotype O:2, UniProt Q0P8T0); assay: His6LegG activity and substrate flexibility (1H NMR, CE)
T1 construct: made in house; host or cells: E. coli BL21[DE3]
Method: as §1, with “The CMP-activation of legionaminic acid (X→XI) was performed using a 20 ml reaction containing approximately 0.2 mM of X, 50 mM MgCl2, 3 mM CTP, and 15 mg of LegFHis6 in 25 mM sodium phosphate pH 7.8, 25 mM NaCl, with incubation at 37° C. for 5 h, and then 25° C. for 72 h. Metabolite purification. Typically, reactions were passed through an Amicon Ultra-15 (10,000 molecular weight cut-off) or Ultra-4 (5,000 molecular weight cut-off) filter membrane before analysis. As required, NDP-sugar preparations (GDP-Glc, GDP-GlcN, GDP-GlcNAc, CDP-GlcNAc, TDP-GlcNAc, and CMP-Leg) were lyophilized and desalted/purified using a Superdex Peptide 10/300 GL (Amersham Biosciences) column in 25 mM ammonium bicarbonate, pH 7.9. For further purity, the NDP-sugar samples above were subjected to anion-exchange chromatography (Mono Q 4.6/100 PE, Amersham Biosciences) using ammonium bicarbonate pH 7.9.” left out, “(ε260=10,000). […]” for “(ε260=10,000).”

T1 sequence (Q0P8T0 whole entry): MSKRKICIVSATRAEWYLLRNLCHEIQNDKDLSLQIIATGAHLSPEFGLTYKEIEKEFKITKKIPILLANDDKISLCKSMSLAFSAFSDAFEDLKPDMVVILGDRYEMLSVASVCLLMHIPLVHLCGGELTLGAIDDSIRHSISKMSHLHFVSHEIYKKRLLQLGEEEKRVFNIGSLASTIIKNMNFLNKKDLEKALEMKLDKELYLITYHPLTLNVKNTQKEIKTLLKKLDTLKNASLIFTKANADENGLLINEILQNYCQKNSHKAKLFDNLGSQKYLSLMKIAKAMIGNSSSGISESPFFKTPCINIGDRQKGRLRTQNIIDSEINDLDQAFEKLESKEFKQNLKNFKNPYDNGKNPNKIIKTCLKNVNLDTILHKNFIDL

| SMILES | LegB reaction product formation [1] | PtmE activity with sugar-1-P acceptor [2] | further results |
| --- | --- | --- | --- |
| CC(=O)NC1C(OP(=O)(O)OP(=O)(O)OCC2OC(n3ccc(N)nc3=O)C(O)C2O)OC(CO)C(O)C1O (stereo not shown) [CDP-GlcNAc, CDP-N-acetyl-glucosamine] | did not yield discernable product |  |  |
| N[C@H]1C(OP(=O)(O)O)O[C@H](CO)[C@H](O)[C@@H]1O (stereo partly shown) [GalN-1-P] |  | no activity was observed |  |
| O=P(O)(O)O[C@H]1O[C@H](CO)[C@@H](O)[C@H](O)[C@H]1O [Glc-1-P, glucose-1-phosphate] |  | activity was observed |  |
| CC(=O)N[C@H]1[C@@H](OP(=O)(O)O)O[C@H](CO)[C@@H](O)[C@@H]1O [GlcNAc-1-P, N-acetyl-α-D-glucosamine-1-phosphate] |  | activity was observed | PtmE NTP donor specificity with this sugar acceptor [2]: exhibited promiscuity with respect to activator NTP donors |
| N[C@H]1[C@@H](OP(=O)(O)O)O[C@H](CO)[C@@H](O)[C@@H]1O [III, α-D-glucosamine-1-phosphate] |  | activity was observed | PtmE NTP donor specificity with this sugar acceptor [2]: absolutely specific for GTP |
| CC(=O)NC1C(OP(=O)(O)OP(=O)(O)OCC2OC(n3cc(C)c(=O)[nH]c3=O)CC2O)OC(CO)C(O)C1O (stereo not shown) [TDP-GlcNAc, TDP-N-acetyl-glucosamine] | did not yield discernable product |  |  |
| Cc1cn([C@H]2C[C@H](O)[C@@H](COP(=O)(O)OP(=O)(O)O[C@H]3O[C@H](CO)[C@@H](O)[C@H](O)[C@H]3O)O2)c(=O)[nH]c1=O [TDP-Glc] | did not yield discernable product |  |  |
| CC(=O)N[C@H]1[C@@H](OP(=O)(O)OP(=O)(O)OC[C@H]2O[C@@H](n3ccc(=O)[nH]c3=O)[C@H](O)[C@@H]2O)O[C@H](C)[C@@H](NC(C)=O)[C@@H]1O [UDP-2,4-diacetamido-2,4,6-trideoxy-α-D-glucose, reference compound] |  |  | NDP removal by LegG ([3]; quantity of LegG increased 10-fold, 90 min 37° C. then 16 h 25° C., CE): UDP removal was observed; formation of IX by LegG ([3]; similar conditions (4 μg LegG)): IX was not observed |
| CC(=O)N[C@H]1[C@@H](OP(=O)(O)OP(=O)(O)OC[C@H]2O[C@@H](n3ccc(=O)[nH]c3=O)[C@H](O)[C@@H]2O)O[C@H](CO)[C@@H](O)[C@@H]1O [UDP-GlcNAc, UDP-N-acetyl-α-D-glucosamine] | did not yield discernable product |  |  |
| CC(=O)N[C@H]1[C@@H](OP(=O)(O)OP(=O)(O)OC[C@H]2O[C@@H](n3cnc4c(=O)[nH]c(N)nc43)[C@H](O)[C@@H]2O)O[C@H](C)[C@@H](NC(C)=O)[C@@H]1O [VIII, GDP-2,4-diacetamido-2,4,6-trideoxy-α-D-glucose] |  |  | time to near completion of formation of IX by LegG ([3]; 4 μg LegG, 0.75 mM substrate, 25° C., in-tube 1H NMR): ≤ 75 min |
